Marks after values point to notes of the source that are not given here.
Assays:
[1] = tested on: HCT-116 colon carcinoma; assay: In vivo antitumor activity, HCT-116 xenograft; parameters: species or system Balb/c athymic (nude) female mice; settings: for LCK (gross log cell kill): HT116 sc xenograft in nude mice, at optimal or maximum tolerated dose, CPT-11 run as comparator in same experiment; for MTD (optimal or maximum tolerated dose level tested): HT116 xenograft experiment, nude mice
Protocol: (§1) Compounds: Examples of this invention were administered in an appropriate vehicle such as cremophor/ethanol/water (10%/10%/80%), in normal saline, water/carboxymethylcellulose vehicle.
(§2) All compounds were tested at several dose levels, with attempts each time to achieve their maximum tolerated dose (MTD). […] The optimal dose (OD) was the dose producing the best therapeutic effect, and was usually, but not always, synonymous with the MTD.
(§3) Tumors: Human tumors (HCT-116 and HT-29 colon carcinomas) were grown as xenografts in Balb/c athymic (nude) female mice. Antitumor assays. All tumors were implanted subcutaneously (sc) as 3-4mm fragments using a 13 gauge trochar. There were generally eight mice per treatment and control group. When treatment was delayed until tumors had obtained a certain size (weight), referred to as a staged tumor experiment (expt.), tumor-bearing mice were selected so that their tumors fell within a limited range of sizes for the particular expt.
(§4) Tumors were measured by calipers, and tumor weight calculated by the formula length (mm) times (×) width (mm)^2/2=tumor weight (mg). The median time (in days) to reach a predetermined tumor target size (for example, 500 mg) for untreated, control (C) mice relative to the time to reach the same target size for treated (T) mice, was calculated as a T-C value. T-C values were divided by the tumor volume doubling time (TVDT), and multiplied by 3.32, to yield a gross log cell kill (LCK) value, [i.e., (T-C)/TVDT×3.32=LCK].
(§5) A mouse was considered cured if there was no palpable tumor after a period of time equal to 10×TVDT post-reatment (Rx).

[2] = tested on: P388/CPT45 cells; assay: Cytotoxicity in camptothecin-resistant P388/CPT45 cells relative to parental P388 (selectivity index R/S); format: cell-based, murine; settings: IC50 P388/CPT45 cells divided by IC50 parental P388 cells
Outline: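 Murine P388 leukemia cells and their camptothecin-resistant P388/CPT45 subline were plated at 8,000 cells/well and exposed to serial compound dilutions for 72 h at 37 °C. Viability was read by MTS/PMS reduction at 492 nm, with IC50 taken against untreated cells. R/S is the P388/CPT45 IC50 divided by the parental P388 IC50.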

[3] = tested on: HT-29 colon carcinoma; assay: In vivo antitumor activity, HT-29 xenograft; parameters: species or system Balb/c athymic (nude) female mice; settings: for LCK (gross log cell kill): HT29 sc xenograft in nude mice, at optimal or maximum tolerated dose, CPT-11 run as comparator in same experiment; for MTD (optimal or maximum tolerated dose level tested): HT29 xenograft experiment, nude mice
Protocol: as §1, §2, §3, §4, §5

Row | SMILES | LCK (gross log cell kill) [1] | MTD (optimal or maximum tolerated dose level tested) [1] [mpkpi] | Selectivity Index R/S [2] | LCK (gross log cell kill) [3] | MTD (optimal or maximum tolerated dose level tested) [3] [mpkpi]
1 | O=C1NC(=O)c2c1c1c3cc(F)c(F)cc3sc1c1c2c2cc(F)c(F)cc2n1[C@@H]1O[C@H](CF)C[C@H](O)[C@H]1O [Example 9, 12-[4,6-Dideoxy-6-fluoro-β-D-glucopyranosyl]-2,3,9,10-tetrafluoro-5H, 13H-benzo[b]thienyl[2,3-a]pyrrolo[3,4-c]carbazole-5,7(6H)-dione] | >3.4 | >22 | 120.2 | >1.4 | >22
2 | O=C1NC(=O)c2c1c1c3cc(F)ccc3[nH]c1c1c2c2cc(F)ccc2n1[C@@H]1O[C@H](CO)[C@@H](F)[C@H](O)[C@H]1O [Example 24, 12-[4-Deoxy-4-fluoro-β-D-glucopyranosyl]-3,9-difluoro-12,13-dihydro-5H-indolo[2,3-a]pyrrolo[3,4-c]carbazole-5,7(6H)-dione] | 1.3 | 10 | 379.0 | 2.1 | 15
3 | O=C1NC(=O)c2c1c1c3cc(F)c(F)cc3sc1c1c2c2cc(F)c(F)cc2n1[C@@H]1O[C@H](CF)[C@@H](F)[C@H](O)[C@H]1O [Example 26, 12-[4,6-Difluoro-4,6-dideoxy-β-D-glucopyranosyl]-2,3,9,10-tetrafluoro-5H, 13H-benzo[b]thienyl[2,3-a]pyrrolo[3,4-c]carbazole-5,7(6H)-dione] | >3.4 | >9 | 387.8 | 1.4 | >9
4 | O=C1NC(=O)c2c1c1c3cc(F)ccc3[nH]c1c1c2c2cc(F)ccc2n1[C@@H]1O[C@H](CF)[C@@H](F)[C@H](O)[C@H]1O [Example 27] | >1.4^c | 8 | 448.4 | 1.9^a | 11
5 | O=C1NC(=O)c2c1c1c3cc(F)c(F)cc3sc1c1c2c2cc(F)c(F)cc2n1[C@@H]1O[C@H](CO)[C@@H](F)[C@H](O)[C@H]1O [Example 33, 12-[4-Deoxy-4-fluoro-β-D-glucopyranosyl]-2,3,9,10-tetrafluoro-5H,13H-benzo[b]thienyl[2,3-a]pyrrolo[3,4-c]carbazole-5,7(6H)-dione] | 2.3 | 10 | >1657.6 | >2.3^b | 11
